# Experiment: Dissolution rate of piroxicam from the solid phases, dispersed amount method (USP 25, NF 20)
# Assay type: physicochemical
# Details: 1 L distilled water, 37° C., paddle 50 rpm
# Procedure: The dissolution rate of the samples under study was determined by the dispersed amount method according to the USP 25, NF 20, 2002. The test samples were introduced into vessels containing 1 L of distilled water each.
# The test was conducted by maintaining the temperature of the dissolving bath at 37° C. and regulating the paddle rotation speed to 50 rpm.
# The concentration of the drug in solution was determined at 2-minute intervals by spectrophotometry.
# Each sample was analysed in triplicate.
compound,measurement,setting,value
"CN1C(C(=O)Nc2ccccn2)=C(O)c2ccccc2S1(=O)=O [PRX, piroxicam]",% DISS (percentage compared with the initial dose of PRX in the sample),T 0 min,0%
same,% DISS (percentage compared with the initial dose of PRX in the sample),T 2 min,0.052%
same,% DISS (percentage compared with the initial dose of PRX in the sample),T 4 min,0.245%
same,% DISS (percentage compared with the initial dose of PRX in the sample),T 6 min,0.451%
same,% DISS (percentage compared with the initial dose of PRX in the sample),T 8 min,0.619%
same,% DISS (percentage compared with the initial dose of PRX in the sample),T 10 min,0.851%
same,% DISS (percentage compared with the initial dose of PRX in the sample),T 20 min,2.051%
same,% DISS (percentage compared with the initial dose of PRX in the sample),T 30 min,3.340%
same,% DISS (percentage compared with the initial dose of PRX in the sample),T 40 min,4.694%
same,% DISS (percentage compared with the initial dose of PRX in the sample),T 50 min,6.087%
same,% DISS (percentage compared with the initial dose of PRX in the sample),T 60 min,7.635%
